# Entries after “also recorded” stand apart in the source; their conditions may differ. Like-named read-outs stand apart in the source and are kept apart here.
# Columns and labels:
# [1] = system: MCF-7 cells; experiment: Cellular and nuclear morphology (light microscopy, Dapi staining); assay type: cell-based; conditions: MCF-7, 0.32 µM, 24 and 48 h
# Protocol: To further examine the apoptosis inducing effect of 7b, the cellular as well as nuclear morphological changes for MCF-7 cells treated with 7b (0.32 µM) were studied following Dapi staining. The effect of 7b on cell morphology was initially analysed with light microscopy.
# (§1) MCF7 cells were cultured on sterile cover slips (Harvard Apparatus, 22 mm2) in sterile six well plates at a density of 2×10^5 cells/well. Twenty-four hours after seeding, cells were exposed to GI50 concentration of compound 7b in fresh serum-free medium. At the end of the exposure, cells attached to cover slips were imaged with a light inverted microscope or washed with PBS and fixed with 3.7% paraformaldhyde for 10 min, permeabilized with 0.1% Triton X-100 in TBST containing 0.01% Tween 20 for 10 min, and blocked for 1 h with 5% goat serum in TBST. The fixed and permeabilized cells were incubated with cleaved caspase-3 rabbit mAb (Cell signaling technology, MA), at a dilution of 1:500, in blocking solution overnight at 4 °C, followed by secondary Cy3-goat anti-Rabbit antibody (Jackson Immuno Research, West Grove, PA) 1:1000 dilution, in the blocking solution for 1 hour, at room temperature. 4',6'-diamidino-2-phenylindole, dihydrochloride (DAPI) (Sigma– Aldrich, St. Louis, MO) was used as counter stain to stain the DNA. […]
# [2] = system: IGROV1; experiment: NCI 60 cell panel SRB screen; assay type: cell-based; conditions: Homo sapiens, IGROV-1
# [3] = system: cleaved caspase-3 in MCF-7 cells; experiment: Cleaved caspase-3 immunostaining; assay type: cell-based; conditions: MCF-7, 0.32 µM, 24 h and 48 h
# Protocol: Caspase-3 is a member of the cysteine-aspartic acid protease (caspase) family. Sequential activation of caspases is considered as one of the important keys in cellular apoptosis process. […] Cleaved caspase-3 further activates a cascade of caspases that induce cell death.
# as §1
# [4] = system: EKVX; experiment: NCI 60 cell panel SRB screen; assay type: cell-based, human; conditions: Homo sapiens, 5 log dose
# [5] = system: SK-MEL-2; experiment: NCI 60 cell panel SRB screen; assay type: cell-based; conditions: Homo sapiens
# [6] = system: MCF-7 cells; experiment: Cell-cycle analysis by flow cytometry; assay type: cell-based; conditions: MCF-7, at GI50 concentration, 24 h and 48 h
# Text: The effect of compound (7b and 13c) on the normal cell-cycle progression was characterised using flow cytometric analysis of the DNA ploidy in MCF-7 cells using BD […] ^TM software. […] The observed increase in sub-G1 cell population may imply DNA fragmentation and apoptosis as a potential mechanism for 7b/13c-induced cancer cell death.
# The cells then were collected by trypsinization, washed with phosphate buffered saline (PBS), and fixed in ice-cold absolute alcohol. Thereafter, cells were stained, using Cycletest^TM Plus DNA Reagent Kit (BD Biosciences, San Jose, CA), according to the manufacturer’s instructions. Cell cycle distribution was determined using a FACS Calibur flow cytometer (BD Biosciences, San Jose, CA).
# [7] = system: SF-539; experiment: NCI 60 cell panel SRB screen; assay type: cell-based, human; conditions: Homo sapiens, SF-539, 5 log dose
# [8] = system: full NCI 60 cell panel; experiment: NCI 60 cell panel SRB screen, whole panel; assay type: cell-based, human; conditions: NCI 5-log dose, full 60 cell panel, read-out: GI50 values, range over the tested cell lines
# [9] = system: MCF-7 cells; experiment: Annexin V-FITC/PI apoptosis detection; assay type: cell-based; conditions: MCF-7, at GI50, 24 h and 48 h
# Text: To further investigate the ability of compounds (7b, 13c and 16a) to induce apoptosis, an Annexin V (conjugated to FITC) apoptosis detection kit was employed. This assay detects phosphatidylserine (PS) expressed on the surface of apoptotic cells and fluoresces green after interacting with the labelled Annexin V. During early apoptosis, membrane asymmetry is lost, and PS translocates from the cytoplasmic side of the membrane to the external leaflet. Propidium iodide (PI), the counter stain used in this assay, has the ability to cross only compromised membranes to intercalate into the DNA. Therefore, PI is used to detect the late stages of apoptosis by the presence of red fluorescence.
# Apoptosis was determined by staining cells with Annexin V–fluorescein isothiocyanate (FITC) and counterstaining with propidium iodide (PI) using the Annexin V–FITC/PI apoptosis detection kit (BD PharMingen, San Diego, CA, USA) according to the manufacturer's instructions. […] The cells then were collected by trypsinization and 0.5 × 10^6 cells were washed twice with phosphate-buffered saline (PBS) and stained with 5 μl Annexin V–FITC and 5 μl PI in 1× binding buffer (BD PharMingen) for 15 minutes at room temperature in the dark. Analyses were performed using FACS Calibur flow cytometer (BD Biosciences, San Jose, CA).
smiles,measurement,setting,value
"O=C(Nc1ccc(Cl)cc1)Nc1ccc(Oc2nncc3ccccc23)cc1 [Compound 7b, 1–(4-Chlorophenyl)-3–(4-(phthalazin-1-yloxy)phenyl)urea]",cellular and nuclear morphology,[1],"deteriorated morphological changes including cell rounding, detachment and cellular fragmentation; also recorded: typical apoptotic characteristics; including condensation of chromatin (brightly stained cells), blubbing with the appearance of nuclear fragmentation"
same,GI50,"[2]; IGROV1, 5 log dose",1.16 µM
same,IC (TGI),"[2]; IGROV1, 5 log dose",5 µM
same,CC50,"[2]; IGROV1, 5 log dose, 48 h, read-out: LC50 (the source's name)",> 100 µM
same,activity at 10 µM,"[2]; IGROV1, single dose 10 μM, read-out: percent cell growth promotion",8.16%
same,cleaved caspase-3 protein expression,[3],concurrent increase in cleaved caspase-3 expression level; also recorded: time-dependent increase in cleaved caspase-3 protein expression; also recorded: increase the expression of cleaved caspase-3
same,GI50,[4],1.61 µM
same,IC (TGI),[4],4.5 µM
same,LC50,[4]; 48 h,> 100 µM
same,GI50,[5],1.57 µM
same,IC (TGI),[5]; read-out: TGI,3.65 µM
same,CC50,"[5]; SK-MEL-2, 5 log dose, 48 h, read-out: LC50 (the source's name)",8.5 µM
same,effect on cell-cycle progression,[6],induce cell cycle arrest at S phase boundary; also recorded: remarkable disruption in cell cycle profile and cell-cycle arrest at S-phase boundary with concurrent time-dependent increase in pre-G cell population
same,GI50,[7],0.28 µM
same,IC (TGI),[7],1.13 µM
same,CC50,"[7]; 48 h, read-out: LC50 (the source's name)",3.81 µM
same,GI50,"[8]; Homo sapiens, 60 cell",0.15 to 8.41 µM
same,GI50,[8],0.15 to 2.81 µM
same,"induction of apoptosis (Annexin-V positive cells), in words",[9],increased the percentage of Annexin-V positive cells indicating an early (lower right quadrant) or late (upper right quadrant) apoptosis in a time-dependent manner
